US9249147B2, “Tyrosine kinase inhibitors” (CHEMBRIDGE CORPORATION, priority 2008, dated 2016)
Like-named read-outs stand apart in the source and are kept apart here.

Assays:
IGF1R = target: T1, IGF1R (Homo sapiens, UniProt P08069); experiment: IGF1R kinase assay; format: biochemical
T1 construct: 6×His- or GST-tagged kinase domain fragments of the corresponding RTKs expressed in baculovirus system; host or cells: baculovirus system
Procedure, shortened: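 The AlphaScreen PT66 format of the NPM-ALK assay was applied with minor modifications to commercial recombinant His/GST-tagged kinase domains. Compound (0.078125–40 μM) was incubated 30 min at RT with 10 μM ATP and biotinylated poly-GT in Tris pH 7.5/MgCl2/MnCl2/DTT buffer, then beads 60 min. Read at 520–680 nm; IC50 and Ki derived.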

IRK = target: T2, IRK (Homo sapiens, UniProt P06213); experiment: IRK (insulin receptor kinase) assay; format: biochemical; conditions: Table 1; read-out: IRK IC50
T2 construct: 6×His- or GST-tagged kinase domain fragments of the corresponding RTKs expressed in baculovirus system; host or cells: baculovirus system
Protocol: To determine inhibition of several tyrosine kinases, such as IGF1R, InsR, Alk, TrkA and Jak2, kinase assays are conducted using either Kinase-Glo (Promega) or AlphaScreen (PerkinElmer) kinase assay platforms. The Kinase-Glo Luminescent Kinase Assay is a homogeneous method for measuring kinase activity by determining the amount of ATP remaining after a kinase reaction. The luminescent signal is proportional to the amount of ATP and inversely proportional to the amount of kinase activity. Tyrosine kinase PT66 AlphaScreen Assay is a high-sensitivity homogeneous, anti-phosphotyrosine antibody-mediated luminescent proximity method measuring incorporation of phosphate in synthetic poly(Glu-Tyr) substrate. The kinase preparations used consist of purified recombinant, 6×His- or GST-tagged kinase domain fragments of the corresponding RTKs expressed in baculovirus system.
Compounds with a range of concentrations 40 μM, 20 μM, 10 μM, 5 μM, 2.5 μM, 1.25 μM, 0.625 μM, 0.3125 μM, 0.15625 μM and 0.078125 μM were incubated with NPM-ALK, which was produced in insect cells as a 6×HIS-tagged fusion protein and purified using nickel-charged resin chromatography, for 30 minutes at RT in the presence of 10 μM ATP and 7.0 ng biotinylated poly-GT. A 1:1 mixture of […] and donor beads was then added to the reaction and incubated for an additional 60 minutes at RT. The assay was conducted on a MultiPROBE liquid handling workstation (PerkinElmer) in a 384-well plate format with a total reaction volume of 40 μL per well. Working stocks of all compounds were dissolved in 100% DMSO and serial dilutions of the compounds were performed using kinase buffer (50 mM Tris-HCl (pH 7.5), 5 mM MgCl2, 5 mM MnCl2, 2 mM DTT (added freshly before use), 0.01% Tween-20) containing 5% DMSO. […] Data were collected as optical readings at 520-680 nm on a Fusion™ microplate analyzer (PerkinElmer), and IC50 and Ki values calculated using PRISM3.0 software (GraphPad Software, Inc., San Diego, Calif.). The same assay was also used with minor modifications to assess the IC50 and Ki values for selected compounds against five other tyrosine kinases (IRK, IGF1R, Flt3, Abl, Src), all of which were purchased from commercial vendors. PolyGT-Biotin was bought from CIS Biointernational Cat. #61GT0BLD; ATP—from Sigma Cat. # A7699; sodium orthovanadate—from Sigma Cat. #S-6508; phosphotyrosine (PT66) assay kit from PerkinElmer Cat. #6760602M; automated workstation tips (20 μL): PerkinElmer Cat. #6000657; and OptiPlate-384 (white)—from PerkinElmer Cat. #6007299.

TRKA = TRKA (Homo sapiens, UniProt P04629); experiment: TRKA kinase assay; format: biochemical; set-up: 6×His- or GST-tagged kinase domain fragments of the corresponding RTKs expressed in baculovirus system; host or cells: baculovirus system; conditions: Table 1; read-out: TRKA IC50
ALK = ALK (Homo sapiens, UniProt Q9UM73); experiment: ALK kinase assay (Kinase-Glo / AlphaScreen, purified NPM-ALK); format: biochemical; set-up: fused to the complete intracytoplasmic portion of ALK containing the functional tyrosine kinase domain; 6xHis; made in house; host or cells: insect cells; the other entry of the earlier key: NPM1 (P06748, Nucleophosmin)
JB6 = experiment: Cell proliferation inhibition, ALCL line JB6; format: cell-based; conditions: Table 2, cell line, read-out: IC50 ALCL (ALK) JB6
Source text: (§1) Cell proliferation inhibition assays were run for compound (II) with the five target NPM-ALK-dependent ALCL cell lines (Karpas 299, SuDHL-1, JB6, SupM2, UConn) and 12 unrelated cell lines (HEK293, CHO-K1, MCF7, HepG2, H292, H520, H1581, H596, H522, CHA-GO-K1, UMC-11, SK-MES1). […] The pronounced target cell-killing effect is also observed (molecular mechanisms to be determined).

Karpas299 = experiment: Cell proliferation inhibition, ALCL line Karpas299; format: cell-based; conditions: Homo sapiens, KARPAS-299; Table 2, cell line; read-out: IC50 ALCL (ALK) Karpas299
Source text: The IL-3-dependent lymphoid cell line BaF3 or BaF3 rendered IL-3-independent by engineered expression of NPM-ALK were used in parallel to test each candidate inhibitor. Control wells contained DMSO solvent without test compound. Specific inhibition of ALK signaling is indicated in the assay by impairment of NPM-ALK-expressing BaF3 cell growth without alterations in the growth of parental BaF3. This colorimetric assay of cell proliferation and viability is based upon reduction of the yellow monotetrazolium salt XTT to a water-soluble orange formazan dye, a reaction catalyzed by mitochondrial dehydrogenases in living cells only (Cell Proliferation Kit II, Cat. #1 465 015, Roche Biochemicals). In addition to testing compounds for their ability to impair the growth of BaF3 cells engineered to express NPM-ALK, the NPM-ALK-positive human lymphoma cell line Karpas-299 (Deutsche Sammlung von Mikroorganismen and Zellkulturen GmbH (DSMZ) no. ACC 31), the human BCR-ABL-positive chronic myeloid leukemia cell line K562 (American Type Culture Collection (ATCC) no. CCL-243), and the human T-cell leukemia line Jurkat (DSMZ no. ACC 282) were tested in these assays.
Each compound stock in 100% DMSO was first diluted using 8% DMSO/culture medium to produce a working stock of 250 μM compound. This working stock was then used to perform serial 1:1 dilutions (i.e., 125 μM, 62.5 μM, 31.25 μM, 15.625 μM, 7.8125 μM, and 3.90625 μM) using DMSO-free culture medium. Twenty (20) μL of each of these dilutions was then added to the cells (2×10^4 cells in 80 μL culture medium per 96-well) to obtain the final test compound concentrations (i.e., 25 μM, 12.5 μM, 6.25 μM, 3.125 μM, 1.5625 μM, and 0.78125 μM).
as §1

UConn = experiment: Cell proliferation inhibition, ALCL line UConn; format: cell-based; conditions: Table 2, cell line; read-out: IC50 ALCL (ALK) Uconn
Source text: as §1

H929 = experiment: Cell line IC50, MM (IGF1R) H929; format: cell-based; conditions: Homo sapiens, NCI-H929; Table 2, cell line
WI38 = experiment: Cell line IC50, control WI38; format: cell-based; conditions: Homo sapiens, WI-38; Table 2, cell line
[1] = Table 2, read-out: Enzymatic IGF1R IC50
[2] = Table 2, read-out: Enzymatic ALK IC50

TRKA, sequence (P04629 510-781 limits assumed): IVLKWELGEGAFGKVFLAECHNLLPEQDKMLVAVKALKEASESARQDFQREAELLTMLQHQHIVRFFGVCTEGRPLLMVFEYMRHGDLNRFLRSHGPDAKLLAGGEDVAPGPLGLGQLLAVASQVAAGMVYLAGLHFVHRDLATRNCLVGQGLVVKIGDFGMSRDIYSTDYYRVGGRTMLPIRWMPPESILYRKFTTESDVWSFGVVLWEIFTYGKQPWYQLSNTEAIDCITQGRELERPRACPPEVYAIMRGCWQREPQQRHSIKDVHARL
T1 sequence (P08069 999-1274 limits assumed): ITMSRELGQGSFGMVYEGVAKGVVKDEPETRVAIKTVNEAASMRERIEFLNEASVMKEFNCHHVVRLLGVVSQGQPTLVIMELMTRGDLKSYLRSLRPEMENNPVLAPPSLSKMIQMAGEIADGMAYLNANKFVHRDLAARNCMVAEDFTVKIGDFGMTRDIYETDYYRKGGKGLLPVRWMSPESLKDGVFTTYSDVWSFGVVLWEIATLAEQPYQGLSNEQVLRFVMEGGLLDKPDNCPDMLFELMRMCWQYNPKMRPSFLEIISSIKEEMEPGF
ALK, sequence (Q9UM73 with tags, fused parts or gaps): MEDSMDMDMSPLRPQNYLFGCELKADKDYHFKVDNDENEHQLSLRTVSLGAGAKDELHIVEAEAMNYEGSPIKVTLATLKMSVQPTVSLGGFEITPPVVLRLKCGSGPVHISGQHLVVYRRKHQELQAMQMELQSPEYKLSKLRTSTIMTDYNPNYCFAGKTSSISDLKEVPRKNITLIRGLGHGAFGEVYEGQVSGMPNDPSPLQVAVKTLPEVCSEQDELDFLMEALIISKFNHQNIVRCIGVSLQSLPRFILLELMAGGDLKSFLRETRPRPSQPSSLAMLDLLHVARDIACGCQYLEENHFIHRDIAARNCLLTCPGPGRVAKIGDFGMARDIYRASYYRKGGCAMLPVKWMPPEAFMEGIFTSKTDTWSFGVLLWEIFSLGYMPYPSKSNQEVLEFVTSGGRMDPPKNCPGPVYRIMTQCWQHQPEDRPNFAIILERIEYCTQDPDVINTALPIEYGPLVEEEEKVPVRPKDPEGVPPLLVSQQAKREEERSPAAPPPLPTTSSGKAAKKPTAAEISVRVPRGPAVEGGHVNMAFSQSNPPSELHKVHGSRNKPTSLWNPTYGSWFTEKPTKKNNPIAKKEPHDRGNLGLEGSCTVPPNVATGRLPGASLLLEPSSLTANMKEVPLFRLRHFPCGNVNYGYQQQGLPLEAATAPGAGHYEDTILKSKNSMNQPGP
T2 sequence (P06213 1023-1298 limits assumed): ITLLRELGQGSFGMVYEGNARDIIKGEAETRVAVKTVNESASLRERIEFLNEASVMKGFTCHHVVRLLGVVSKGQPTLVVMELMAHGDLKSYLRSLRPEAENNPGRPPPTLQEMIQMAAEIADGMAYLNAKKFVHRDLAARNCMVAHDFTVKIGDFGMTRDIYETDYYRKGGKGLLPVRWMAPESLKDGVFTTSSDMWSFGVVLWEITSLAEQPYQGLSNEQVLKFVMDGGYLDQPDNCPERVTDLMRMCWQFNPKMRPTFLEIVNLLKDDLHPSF

| Compound | IC50 (IGF1R; Table 1, read-out: IGF1R IC50) | IC50 (IRK) | IC50 (TRKA) | IC50 (ALK; Table 1, read-out: ALK IC50) | IC50 (IGF1R; [1]) | IC50 (JB6) | IC50 (Karpas299) | IC50 (UConn) | IC50 (H929) | IC50 (WI38) | IC50 (ALK; [2]) |
| --- | --- | --- | --- | --- | --- | --- | --- | --- | --- | --- | --- |
| Cc1cccc(C)c1C[C@H](C)Nc1cc[nH]c(=O)c1-c1nc2cc3c(cc2[nH]1)C(=O)N(CCN1CCCC1)C3 | > 1 µM | > 1 µM | < 0.01 µM | 0.01 to 0.1 µM |  |  |  |  |  |  |  |
| Cc1c(F)cccc1C[C@H](C)Nc1cc[nH]c(=O)c1-c1nc2cc3c(cc2[nH]1)C(=O)N(CCN1CCCC1)C3 | 0.25 to 1 µM | 0.1 to 0.25 µM | < 0.01 µM | 0.01 to 0.1 µM |  |  |  |  |  |  |  |
| O=C1NC(=O)c2cc3[nH]c(-c4c(NC[C@@H](O)c5cccc(Cl)c5)cc[nH]c4=O)nc3cc21 | 0.25 to 1 µM | > 1 µM | 0.1 to 0.25 µM | > 1 µM |  |  |  |  |  |  |  |
| O=C1c2cc3nc(-c4c(NC[C@@H](O)c5cccc(Cl)c5)cc[nH]c4=O)[nH]c3cc2C(=O)N1CCN1CCCC1 | 0.01 to 0.1 µM | 0.1 to 0.25 µM | 0.01 to 0.1 µM | 0.01 to 0.1 µM |  |  |  |  |  |  |  |
| Cc1ccc(F)cc1C[C@H](C)Nc1cc[nH]c(=O)c1-c1nc2cc3c(cc2[nH]1)C(=O)N(CCN1CCCC1)C3 [drawing 350] |  |  |  |  | 0.1 to 0.25 µM | < 0.01 µM | < 0.01 µM | 0.01 to 0.1 µM | 0.25 to 1 µM | > 1 µM | < 0.01 µM |
| Cc1ccc(F)cc1C[C@H](C)Nc1cc[nH]c(=O)c1-c1nc2c(C)c3c(cc2[nH]1)CN(CCN1CCCC1)C3=O [drawing 351] |  |  |  |  | 0.1 to 0.25 µM | < 0.01 µM | < 0.01 µM | 0.01 to 0.1 µM | 0.25 to 1 µM | > 1 µM | < 0.01 µM |
| C[C@@H](Cc1c(F)c(F)cc(F)c1F)Nc1cc[nH]c(=O)c1-c1nc2cc3c(cc2[nH]1)CN(CCN1CCCC1)C3=O [drawing 352] |  |  |  |  | > 1 µM | < 0.01 µM | < 0.01 µM | 0.01 to 0.1 µM | 0.25 to 1 µM | > 1 µM | < 0.01 µM |
| C[C@@H]1CCCN1CCN1Cc2cc3[nH]c(-c4c(N[C@@H](C)Cc5cc(F)cc(F)c5F)cc[nH]c4=O)nc3cc2C1=O [drawing 353] |  |  |  |  | > 1 µM | < 0.01 µM | < 0.01 µM | 0.01 to 0.1 µM | 0.25 to 1 µM | > 1 µM | < 0.01 µM |
| Cc1ccc(F)cc1C[C@H](C)Nc1cc[nH]c(=O)c1-c1nc2cc3c(cc2[nH]1)CN(CCN1CCC[C@H]1C)C3=O [drawing 354] |  |  |  |  | > 1 µM | 0.01 to 0.1 µM | 0.01 to 0.1 µM | 0.01 to 0.1 µM | 0.25 to 1 µM | > 1 µM | 0.01 to 0.1 µM |
| CNCCN1Cc2cc3[nH]c(-c4c(N[C@@H](C)Cc5cc(F)ccc5C)cc[nH]c4=O)nc3cc2C1=O [drawing 355] |  |  |  |  | 0.01 to 0.1 µM | < 0.01 µM | 0.01 to 0.1 µM | 0.01 to 0.1 µM | 0.25 to 1 µM | > 1 µM | < 0.01 µM |
| C[C@@H](Cc1cc(F)cc(F)c1F)Nc1cc[nH]c(=O)c1-c1nc2cc3c(cc2[nH]1)CN(CCN(C)C)C3=O [drawing 356] |  |  |  |  | 0.1 to 0.25 µM | 0.01 to 0.1 µM | 0.01 to 0.1 µM | 0.01 to 0.1 µM | 0.25 to 1 µM | > 1 µM | < 0.01 µM |
| Cc1ccc(F)cc1C[C@H](C)Nc1cc[nH]c(=O)c1-c1nc2cc3c(cc2[nH]1)CN(CCN(C)C)C3=O [drawing 357] |  |  |  |  | 0.1 to 0.25 µM | 0.01 to 0.1 µM | 0.01 to 0.1 µM | 0.01 to 0.1 µM | 0.25 to 1 µM | > 1 µM | < 0.01 µM |
| C[C@@H](Cc1cc(F)cc(F)c1F)Nc1cc[nH]c(=O)c1-c1nc2cc3c(cc2[nH]1)CN(CCN1CCCC1)C3=O [drawing 358] |  |  |  |  | 0.25 to 1 µM | 0.01 to 0.1 µM | 0.01 to 0.1 µM | 0.01 to 0.1 µM | 0.25 to 1 µM | > 1 µM | 0.01 to 0.1 µM |
| C[C@@H](Cc1cc(F)ccc1Br)Nc1cc[nH]c(=O)c1-c1nc2cc3c(cc2[nH]1)CN(CCN1CCCC1)C3=O [drawing 359] |  |  |  |  | 0.25 to 1 µM | 0.01 to 0.1 µM | 0.01 to 0.1 µM | 0.1 to 0.25 µM | 0.25 to 1 µM | > 1 µM | 0.01 to 0.1 µM |
